Experimental findings from ChEMBL document CHEMBL1146648, “Development of l-3-aminotyrosine suitably protected for the synthesis of a novel nonphosphorylated hexapeptide with low-nanomolar Grb2-SH2 domain-binding affinity” (Bioorg Med Chem Lett, 2004) are described below.

Structures are written as SMILES. Where a SMILES comes first, the peptide text is derived from it. Bridges are numbered along the chain shown (N, C = ends). [ ]: non-standard residue; d: D form. Tyr(3-NH2) = Nc1cc(C[C@H](N)C(=O)O)ccc1O; Gla = N[C@@H](CC(C(=O)O)C(=O)O)C(=O)O; Aad = N[C@@H](CCCC(=O)O)C(=O)O; Ac6c = NC1(C(=O)O)CCCCC1; Ava = NCCCCC(=O)O

In the experiment the target is Growth factor receptor-bound protein 2 (Homo sapiens, UniProt P62993). The experiment is described as follows: Competitive binding affinity against Growth factor receptor bound protein 2 was assessed using SHC(pTyr-317) phospopeptide in biacore surface plasmon resonance (SPR) method.
Chain of Growth factor receptor-bound protein 2 (P62993 whole entry): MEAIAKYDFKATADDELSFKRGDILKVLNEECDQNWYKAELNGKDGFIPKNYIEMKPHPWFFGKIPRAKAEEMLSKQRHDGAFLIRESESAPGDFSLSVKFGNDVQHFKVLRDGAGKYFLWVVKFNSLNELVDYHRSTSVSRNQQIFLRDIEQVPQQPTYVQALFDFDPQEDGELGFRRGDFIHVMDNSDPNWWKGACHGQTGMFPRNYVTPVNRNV
`CC(C)C[C@@H]1NC(=O)[C@H](CC(C(=O)O)C(=O)O)NC(=O)C[S+]([O-])C[C@H](C(N)=O)NC(=O)CCCCNC(=O)[C@H](C(C)C)NC(=O)[C@H](CC(N)=O)NC(=O)C2(CCCCC2)NC(=O)[C@H](Cc2ccc(O)c(N)c2)NC1=O` (stereo partly specified): the IC50 (in general, the concentration needed to halve the response being measured) was found to be 1.08 µM.

In turn, `CC(C)C[C@@H]1NC(=O)[C@H](CCCC(=O)O)NC(=O)C[S+]([O-])C[C@@H](C(N)=O)NC(=O)CCCCNC(=O)[C@H](C(C)C)NC(=O)[C@H](CC(N)=O)NC(=O)C2(CCCCC2)NC(=O)[C@H](Cc2ccc(O)cc2)NC1=O` (stereo partly specified) gave an IC50 of 9.8 µM.

For the molecule `CC(C)C[C@@H]1NC(=O)[C@H](CCCC(=O)O)NC(=O)C[S+]([O-])C[C@H](C(N)=O)NC(=O)CCCCNC(=O)[C@H](C(C)C)NC(=O)[C@H](CC(N)=O)NC(=O)C2(CCCCC2)NC(=O)[C@H](Cc2ccc(O)cc2)NC1=O` (stereo partly specified), the IC50 was 84.5 µM.

With `CC(C)C[C@@H]1NC(=O)[C@H](CC(C(=O)O)C(=O)O)NC(=O)C[S+]([O-])C[C@@H](C(N)=O)NC(=O)CCCCNC(=O)[C@H](C(C)C)NC(=O)[C@H](CC(N)=O)NC(=O)C2(CCCCC2)NC(=O)[C@H](Cc2ccc(O)c(N)c2)NC1=O` (stereo partly specified), the IC50 worked out at 0.05 µM.

`CC(C)C[C@@H]1NC(=O)[C@H](CCCC(=O)O)NC(=O)CSC[C@@H](C(N)=O)NC(=O)CCCCNC(=O)[C@H](C(C)C)NC(=O)[C@H](CC(N)=O)NC(=O)C2(CCCCC2)NC(=O)[C@H](Cc2ccc(O)cc2)NC1=O` ({CH2CO}-[Aad]LY[Ac6c]NV[Ava]C-NH2; thioether N-8) came in with a 50% inhibitory concentration (IC50) of 11.4 µM.

Molecule `CC(C)C[C@@H]1NC(=O)[C@H](CC(C(=O)O)C(=O)O)NC(=O)CSC[C@@H](C(N)=O)NC(=O)CCCCNC(=O)[C@H](C(C)C)NC(=O)[C@H](CC(N)=O)NC(=O)C2(CCCCC2)NC(=O)[C@H](Cc2ccc(O)c(N)c2)NC1=O` ({CH2CO}-[Gla]L[Tyr(3-NH2)][Ac6c]NV[Ava]C-NH2; thioether N-8) had a 50% inhibitory concentration (IC50) of 0.16 µM.
